From patent US20160339074A1, “PHARMACEUTICAL COMPOSITION OF SELECTIVE HCV NS3/4A INHIBITORS” (MERCK SHARP & DOHME CORP., priority 2014, published 2016)
Converted amounts (≈) assume the structure as drawn. Read-outs that look alike come from different tables or passages of the source.

Legend:
[1] = log D of Compound 1; type: physicochemical; details: pH 7, pH=7
[2] = TM/TG ratio (crystallization tendency); type: physicochemical; details: based on the most stable crystalline phase known
[3] = Aqueous solubility; type: physicochemical; details: aqueous medium (not further specified)
[4] = thermodynamic from solid

## C=C[C@@H]1C[C@]1(NC(=O)[C@@H]1C[C@@H]2CN1C(=O)[C@H](C(C)(C)C)NC(=O)O[C@@H]1C[C@H]1CCCCCc1nc3ccc(OC)cc3nc1O2)C(=O)NS(=O)(=O)C1CC1 [Compound 1, (1aR,5S,8S,10R,22aR)-5-tert-butyl-N-{(1R,2S)-1-[(cyclopropylsulfonyl)carbamoyl]-2-ethenylcyclopropyl}-14-methoxy-3,6-dioxo-1,1a,3,4,5,6,9,10,18,19,20,21,22,22a-tetradecahydro-8H-7,10-methanocyclopropa[18,19][1,10,3,6]dioxadiazacyclononadecino[11,12-b]quinoxaline-8-carboxamide]
[1]
  logD: 3
[2]
  TM/TG ratio: 1.12
[3]
  solubility: < 50 µg/mL
[4]; simulated fasted state intestinal fluid, fassif
  solubility at 2 h: 50 µg/mL (≈ 65.2 µM)
[4]; simulated gastric fluid
  solubility at 2 h: < 3 µg/mL
